# According to patent publication US10322138B2, “Treatment of depressive disorders” (Pherin Pharmaceuticals, Inc., priority 2012, dated 2019):
# Like-named read-outs stand apart in the source and are kept apart here.
# Experiments:
# [1] = tested on: individuals diagnosed with MDD and insomnia; conditions: cited from earlier work
# [2] = assay type: in vivo; conditions: rat, repeated intranasal doses at 10 mg/Kg
# [3] = tested on: isolated human nasal chemosensory neurons; experiment: Electrophysiology: inward currents in isolated nasal chemosensory neurons; assay type: cell-based
# dogs [4] = experiment: 28-day intranasal toxicity; assay type: in vivo, dog; conditions: intranasal up to 300 μg/day for 28 days
# [5] = Ames reverse mutation assay
# androgen receptors = androgen receptors (Homo sapiens, UniProt P10275); experiment: In vitro agonist/antagonist activity on steroid receptors
# [6] = tested on: nasal septal chemosensory epithelium; experiment: Electrophysiology: electrotonic depolarization of chemosensory epithelium; assay type: cell-based, human
# dogs [7] = experiment: Intranasal and intravenous toxicity up to 2.5 mg/Kg; assay type: in vivo, dog; conditions: intranasal and intravenous up to 2.5 mg/Kg
# mice = experiment: as above; assay type: in vivo, mouse; conditions: intranasal and intravenous up to 2.5 mg/Kg
# glucocorticoid receptors = glucocorticoid receptors (Homo sapiens, UniProt P04150); experiment: In vitro agonist/antagonist activity on steroid receptors
# [8] = tested on: receptors of indoleamine, monoamines, ion channels, receptors, peptides, opioid, glutamate neurotransmitter, steroid hormones, or glucocorticoid receptors; experiment: In vitro receptor affinity panel; assay type: binding
# healthy individuals = experiment: Phase 1 open-label, flexible dose-escalation trial; assay type: in vivo, human
# Description: In a Phase 1 open-label, flexible dose-escalation trial, the pregn-4-en-20-yn-3-one was formulated as an aqueous solution at 8 μg/mL, with 2% propylene glycol and 2% ethanol, and was administered with a Valois intranasal metered spray pump delivering 50 μL, so that the pregn-4-en-20-yn-3-one was administered at 400 ng/spray. The low-dose group received 400, 400, 1600, 1600, 2800, and 2800 ng/day over the six-day period of the trial, while the high-dose group received 4000, 4000, 5200, 5200, 6400, and 6400 ng/day over the six-day period of the trial. The trial enrolled 10 individuals, 7 male and 3 female, between 21 and 38 years old, healthy, free of any Axis I diagnosis according to the DSM-IV-TR, and not taking any central nervous system medications.
# progestin receptors = progestin receptors (Homo sapiens, UniProt P06401); experiment: In vitro agonist/antagonist activity on steroid receptors
# rabbits = experiment: Intranasal and intravenous toxicity up to 2.5 mg/Kg; assay type: in vivo, rabbit; conditions: intranasal and intravenous up to 2.5 mg/Kg
# rats [9] = experiment: as above; assay type: in vivo, rat; conditions: intranasal and intravenous up to 2.5 mg/Kg
# rats [10] = experiment: One-month intranasal toxicity; assay type: in vivo, rat; conditions: intranasal up to 50 μg/day for one month
# bone marrow = experiment: In vivo bone marrow micronucleus test
# rats of both sexes = assay type: in vivo; conditions: intravenous 1 mg/Kg
# [11] = tested on: individuals meeting the diagnostic criteria for MDD; experiment: Phase 2 three-arm, double-blind, randomized trial in MDD; assay type: in vivo, human; conditions: for decrease in average HRSD-17 score from baseline (standard deviation): eight weeks of treatment; for Cohen's d relative to placebo, HRSD-17 item 4 / Cohen's d relative to placebo, HRSD-17 score / decrease in HRSD-17 item 4 (initial insomnia) from baseline: eight weeks
# Description: In a Phase 2 three-arm, double-blind, randomized trial, individuals received either placebo (a nasal solution containing no pregn-4-en-20-yn-3-one), 3200 ng/day of pregn-4-en-20-yn-3-one (“low dose”), or 6400 ng/day of pregn-4-en-20-yn-3-one (“high dose”), formulated and administered as in the Phase 1 trial. The placebo group and the low dose group administered two sprays per nostril twice/day, the high dose group administered two sprays per nostril four times/day. The trial enrolled 30 individuals, male and female between 18 and 60 years old, meeting the diagnostic criteria for MDD and free of any other Axis I diagnosis according to the DSM-IV-TR, non-suicidal, and not taking any central nervous system medications (including natural products such as St. John's wort). The individuals were required to have a minimum score on the Hamilton Rating Scale for Depression (HRSD-17), a 17-item scale designed for completion by a health professional following a structured interview with the individual, of at least 17, meaning that they were at least moderately depressed; and the primary efficacy criterion in the trial was reduction in HRSD-17 score from baseline.
# The trial included ten weekly visits. At the first (screening) visit, the individuals were assessed for depression symptoms and randomized into treatment groups. […] At the second (baseline) visit, they were assessed, trained in self-administration of the nasal spray, and began self-administration of their trial medication. There were seven visits at which they were assessed while on treatment with their trial medication; and one follow-up visit one week after the end of medication administration at which they were given final assessments.
# [Cohen's d is the mean difference between groups divided by the pooled standard deviation. For behavioral measures, a Cohen's d of 0.2 represents a small treatment effect; 0.5, a medium treatment effect; and 0.8, a large treatment effect.] […] HRSD-17 item 4 measures initial insomnia (difficulty in falling asleep early in the night), and is scored 0, for no difficulty falling asleep; 1, for complaints of occasional difficulty falling asleep, i.e. more than ½ hour; and 2, complaints of nightly difficulty falling asleep.
# estrogen receptors = experiment: In vitro agonist/antagonist activity on steroid receptors
# pregnant rabbits = experiment: Reproductive toxicity study; assay type: in vivo, rabbit; conditions: intravenous doses up to 2.5 mg/Kg/day during organogenesis
# pregnant rats = experiment: Reproductive toxicity study; assay type: in vivo, rat; conditions: intravenous doses up to 2.5 mg/Kg/day during organogenesis
# mice of both sexes = experiment: Intraperitoneal toxicity, 7-day observation; assay type: in vivo; conditions: intraperitoneal up to 200 mg/Kg
# [12] = tested on: healthy volunteers of both sexes; experiment: Pilot trials, nasal administration; assay type: in vivo, human
# [13] = escitalopram plus cognitive behavioral therapy for insomnia
# [14] = escitalopram plus control quasi-desensitization therapy
# [15] = Phase 1, intranasal 400-6400 ng/day over six days
# Sequence of glucocorticoid receptors (P04150 whole entry): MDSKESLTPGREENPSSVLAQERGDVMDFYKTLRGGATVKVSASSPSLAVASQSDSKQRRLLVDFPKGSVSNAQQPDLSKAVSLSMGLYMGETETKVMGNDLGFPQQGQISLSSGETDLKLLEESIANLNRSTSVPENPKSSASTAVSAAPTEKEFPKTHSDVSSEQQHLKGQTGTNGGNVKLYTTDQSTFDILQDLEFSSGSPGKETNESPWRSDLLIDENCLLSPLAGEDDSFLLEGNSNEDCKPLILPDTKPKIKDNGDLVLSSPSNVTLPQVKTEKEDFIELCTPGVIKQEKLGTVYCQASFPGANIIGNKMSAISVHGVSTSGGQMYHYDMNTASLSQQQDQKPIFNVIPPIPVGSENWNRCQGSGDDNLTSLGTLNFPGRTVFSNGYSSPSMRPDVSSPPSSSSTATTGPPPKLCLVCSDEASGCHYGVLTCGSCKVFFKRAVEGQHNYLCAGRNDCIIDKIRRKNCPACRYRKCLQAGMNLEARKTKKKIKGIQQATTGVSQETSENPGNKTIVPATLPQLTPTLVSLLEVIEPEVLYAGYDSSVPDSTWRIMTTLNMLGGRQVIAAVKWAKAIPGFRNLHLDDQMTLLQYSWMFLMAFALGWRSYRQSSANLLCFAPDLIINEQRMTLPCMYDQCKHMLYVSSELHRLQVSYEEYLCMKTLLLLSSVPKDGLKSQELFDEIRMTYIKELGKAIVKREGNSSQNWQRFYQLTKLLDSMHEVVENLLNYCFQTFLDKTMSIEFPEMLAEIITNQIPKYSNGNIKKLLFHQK
# Sequence of progestin receptors (P06401 whole entry): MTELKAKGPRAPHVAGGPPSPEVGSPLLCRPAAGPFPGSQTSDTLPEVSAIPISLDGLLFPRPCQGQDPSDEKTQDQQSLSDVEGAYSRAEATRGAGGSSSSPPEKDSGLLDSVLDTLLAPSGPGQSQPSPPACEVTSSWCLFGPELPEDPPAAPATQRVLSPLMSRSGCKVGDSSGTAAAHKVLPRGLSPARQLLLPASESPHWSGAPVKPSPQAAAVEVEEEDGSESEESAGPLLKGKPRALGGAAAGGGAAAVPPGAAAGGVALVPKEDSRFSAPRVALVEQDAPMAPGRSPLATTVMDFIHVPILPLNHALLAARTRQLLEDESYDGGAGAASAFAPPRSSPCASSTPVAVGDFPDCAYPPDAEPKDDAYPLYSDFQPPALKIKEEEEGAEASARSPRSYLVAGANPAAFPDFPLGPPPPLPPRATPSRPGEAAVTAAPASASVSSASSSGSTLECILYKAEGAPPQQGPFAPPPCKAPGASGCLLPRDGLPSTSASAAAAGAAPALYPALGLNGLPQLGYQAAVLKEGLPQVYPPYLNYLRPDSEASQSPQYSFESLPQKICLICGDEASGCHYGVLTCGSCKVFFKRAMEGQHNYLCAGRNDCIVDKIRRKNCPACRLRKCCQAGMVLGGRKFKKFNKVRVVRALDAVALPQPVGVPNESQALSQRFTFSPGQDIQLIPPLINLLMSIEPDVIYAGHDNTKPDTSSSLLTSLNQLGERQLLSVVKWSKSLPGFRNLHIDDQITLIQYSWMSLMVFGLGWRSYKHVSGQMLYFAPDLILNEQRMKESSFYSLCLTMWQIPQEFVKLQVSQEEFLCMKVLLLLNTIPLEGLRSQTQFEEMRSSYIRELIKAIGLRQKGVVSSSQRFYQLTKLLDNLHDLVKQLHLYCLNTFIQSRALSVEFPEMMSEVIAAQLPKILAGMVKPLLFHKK
# Sequence of androgen receptors (P10275 whole entry): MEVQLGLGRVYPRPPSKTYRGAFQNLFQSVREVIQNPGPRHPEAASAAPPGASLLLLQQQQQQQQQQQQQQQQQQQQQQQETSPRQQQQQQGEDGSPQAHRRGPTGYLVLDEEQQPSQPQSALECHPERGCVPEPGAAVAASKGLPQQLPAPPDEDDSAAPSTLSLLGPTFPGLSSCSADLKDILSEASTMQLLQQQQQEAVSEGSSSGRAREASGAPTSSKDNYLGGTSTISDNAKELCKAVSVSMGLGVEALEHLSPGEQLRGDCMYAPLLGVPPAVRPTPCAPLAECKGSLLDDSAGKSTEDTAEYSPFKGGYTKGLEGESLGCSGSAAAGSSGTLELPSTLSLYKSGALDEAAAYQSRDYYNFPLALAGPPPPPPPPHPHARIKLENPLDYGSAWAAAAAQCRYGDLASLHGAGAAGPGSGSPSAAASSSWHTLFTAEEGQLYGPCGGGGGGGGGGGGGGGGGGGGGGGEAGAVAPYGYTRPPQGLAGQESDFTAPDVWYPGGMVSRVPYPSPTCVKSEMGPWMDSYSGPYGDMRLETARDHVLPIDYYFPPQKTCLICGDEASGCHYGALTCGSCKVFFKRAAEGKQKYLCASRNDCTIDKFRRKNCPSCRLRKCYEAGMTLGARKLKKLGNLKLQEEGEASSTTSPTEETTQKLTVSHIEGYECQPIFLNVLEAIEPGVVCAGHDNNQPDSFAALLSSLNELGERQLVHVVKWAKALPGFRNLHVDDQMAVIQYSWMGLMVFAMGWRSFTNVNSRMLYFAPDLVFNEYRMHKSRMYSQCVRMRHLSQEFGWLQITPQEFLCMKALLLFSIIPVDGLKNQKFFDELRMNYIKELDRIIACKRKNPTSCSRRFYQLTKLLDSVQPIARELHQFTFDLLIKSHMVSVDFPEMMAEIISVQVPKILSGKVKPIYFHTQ
smiles,measurement,setting,value
CN(C)CCC[C@@]1(c2ccc(F)cc2)OCc2cc(C#N)ccc21 [escitalopram],rate of remission of the depression,[1]; [13],61.5%
same,remission of insomnia,[1]; [13],50.0%
same,rate of remission of the depression,[1]; [14],33.3%
same,remission of insomnia,[1]; [14],7.7%
"C#C[C@H]1CC[C@H]2[C@@H]3CCC4=CC(=O)CC[C@]4(C)[C@H]3CC[C@]12C [pregn-4-en-20-yn-3-one, Pregn-4-en-20-yn-3-one]",systemic exposure,[2],very low systemic exposure (below the limit of accurate quantitation)
same,inward currents in isolated human nasal chemosensory neurons,[3],induced inward currents
same,concentration of maximal response (amplitude),[3]; amplitude increased depending on concentration,10^−7 to 10^−5 M
same,"deaths, adverse clinical signs, laboratory or pathology parameters",dogs [4],no deaths or adverse clinical signs or effects on the laboratory or pathology parameters
same,mutagenic or clastogenic potential,[5],no evidence of mutagenic or clastogenic potential
same,agonist or antagonist activity,androgen receptors,no agonist or antagonist activity
same,electrotonic depolarization of the nasal septal chemosensory epithelium,[6],electrotonic depolarization
same,"deaths, adverse clinical signs, physiological changes, clinical laboratory parameters",dogs [7],"no deaths or adverse clinical signs, no physiological changes, or changes in clinical laboratory parameters"
same,"deaths, adverse clinical signs, physiological changes, clinical laboratory parameters",mice,"no deaths or adverse clinical signs, no physiological changes, or changes in clinical laboratory parameters"
same,agonist or antagonist activity,glucocorticoid receptors,no agonist or antagonist activity
same,affinity for receptors,[8],nor was there any affinity
same,"differences in clinical laboratory values, neuropsychological functioning, brain activity between doses or visits",healthy individuals; Phase 1,No statistically significant differences
same,differences in safety parameters between the three doses of each treatment group,healthy individuals; Phase 1,no statistically significant differences
same,most frequent adverse events,healthy individuals; [15],"increased appetite, and dizziness in the high dose group"
same,serious adverse events,healthy individuals; [15],no serious adverse events
same,agonist or antagonist activity,progestin receptors,no agonist or antagonist activity
same,"deaths, adverse clinical signs, physiological changes, clinical laboratory parameters",rabbits,"no deaths or adverse clinical signs, no physiological changes, or changes in clinical laboratory parameters"
same,"deaths, adverse clinical signs, physiological changes, clinical laboratory parameters",rats [9],"no deaths or adverse clinical signs, no physiological changes, or changes in clinical laboratory parameters"
same,"deaths, adverse clinical signs, laboratory or pathology parameters",rats [10],no deaths or adverse clinical signs or effects on laboratory or pathology parameters
same,mutagenic or clastogenic potential,bone marrow,no evidence of mutagenic or clastogenic potential
same,pathological changes,rats of both sexes,no pathological changes
same,changes in behavior,rats of both sexes; 8-day period,no changes in behavior
same,serious adverse events,"[11]; Phase 2, any of the groups",no serious adverse events reported
same,decrease in average HRSD-17 score from baseline (standard deviation),[11]; high dose 6400 ng/day intranasal,18.6 (8.7)
same,"Cohen's d relative to placebo, HRSD-17 item 4",[11]; high dose 6400 ng/day,1.60
same,"Cohen's d relative to placebo, HRSD-17 score",[11]; high dose 6400 ng/day,0.82
same,decrease in HRSD-17 item 4 (initial insomnia) from baseline,[11]; high dose 6400 ng/day,1.4 (0.25)
same,decrease in average HRSD-17 score from baseline (standard deviation),[11]; low dose 3200 ng/day intranasal,18.3 (7.7)
same,"Cohen's d relative to placebo, HRSD-17 item 4",[11]; low dose 3200 ng/day,0.39
same,"Cohen's d relative to placebo, HRSD-17 score",[11]; low dose 3200 ng/day,0.86
same,decrease in HRSD-17 item 4 (initial insomnia) from baseline,[11]; low dose 3200 ng/day,0.6 (0.3)
same,time to effect on a depressive disorder or its symptoms,[11]; nasal administration,≤ 1 week
same,agonist or antagonist activity,estrogen receptors,no agonist or antagonist activity
same,adverse effects on maternal or litter parameters,pregnant rabbits,no adverse effects on maternal or litter parameters
same,adverse effects on maternal or litter parameters,pregnant rats,no adverse effects on maternal or litter parameters
same,macroscopic or microscopic changes in organs,mice of both sexes,no macroscopic or microscopic changes
same,mortality or adverse symptoms,mice of both sexes; 7-day period,no mortality or adverse symptoms
same,change in heart rate,[12]; intranasal,did not produce statistically significant change
same,change in respiratory rate,[12]; intranasal,did not produce statistically significant change
same,duration of the QTC intervals of the electrocardiogram,[12]; intranasal,did not change
same,effect on alpha and beta frequency bands of electroencephalogram,[12]; intranasal,did not have significant effect
same,effect on body temperature,[12]; intranasal,did not have significant effect
same,frequency of electrodermal activity events (skin conductance),[12]; intranasal,did significantly increase
same,tolerability,[12]; nasal administration,well tolerated
